Measurements as given in PMC10377643, “Exploration of Bis-Cinnamido-Polyamines as Intrinsic Antimicrobial Agents and Antibiotic Enhancers” (Biomolecules, 2023).

Legend:
A. baumannii AYE [1] = assay: Antibiotic potentiation by 13b, A. baumannii; type: cell-based, Acinetobacter baumannii
Description: (§1) Antibiotic enhancer concentrations were determined using previously reported protocols.
(§2) The antibiotic-enhancing activities of 13b, the strongest non-toxic doxycycline enhancer, were further evaluated with an expanded set of antibiotics (minocycline, chloramphenicol, vancomycin, nalidixic acid and erythromycin) against three drug-resistant strains of Gram-negative bacteria (P. aeruginosa, K. pneumoniae and A. baumannii) (Table 3). […] However, 13b was able to strongly potentiate the activity of minocycline against P. aeruginosa, K. pneumoniae and A. baumannii (>41-fold, >82-fold and >82-fold, respectively) while also enhancing the activity of doxycycline against P. aeruginosa (>40-fold). The enhancing activity of doxycycline against A. baumannii and K. pneumoniae was not investigated due to its sensitivity to these strains.

A. baumannii AYE [2] = assay: Intrinsic MIC, A. baumannii AYE; type: cell-based; details: Acinetobacter baumannii; A. baumannii AYE; substance alone; read-out: MIC alone, A. b
Description: as §1

[3] = test system: HEK293 human embryonic kidney cells; assay: Cytotoxicity assay; type: cell-based; details: mean (n = 2)
Description: (§3) Cytotoxicity assays were conducted using the protocols previously reported.

Cytotoxicity assay = type: cell-based, human; details: human, HEK293 human embryonic kidney cells, mean (n = 2), read-out: Cytotoxicity (IC50), concentration of compound at 50% cytotoxicity
Description: as §3

human red blood cells = assay: Hemolytic assay; type: cell-based; details: mean (n = 2)
Description: Hemolysis assays were conducted using the protocols previously reported.

P. aeruginosa ATCC 27853 [4] = assay: Doxycycline enhancement against P. aeruginosa; type: cell-based, Pseudomonas aeruginosa; details: doxycycline fixed at 4.5 µM
Description: as §1
We then evaluated the set of analogues for the ability to enhance the antibiotic activity of doxycycline against P. aeruginosa ATCC 27853 and of erythromycin against E. coli ATCC 25922 (Table 2). In the case of doxycycline, a fixed concentration of the antibiotic of 4.5 μM, which is twenty-fold lower than the intrinsic MIC 90 μM against this organism, was used. Each of the test compounds was then evaluated at a range of concentrations varying from 3.125 to 50–100 μM, with the upper concentration dependent upon the compounds intrinsic MIC towards P. aeruginosa (Table 1). […] While the observation of cytotoxicity/hemolytic properties of 16a–c, 14f and 13f reduces our interest in these analogues, analogues 13b and 13d were identified as non-toxic and strong enhancers of the action of doxycycline towards P. aeruginosa.

S. aureus ATCC 25923 = assay: Antimicrobial MIC, S. aureus; type: cell-based; details: Staphylococcus aureus, ATCC25923, mean (n = 3)
Description: (§4) The susceptibility of bacterial strains S. aureus (ATCC 25923), E. coli (ATCC 25922) and P. aeruginosa (ATCC 27853) to antibiotics and compounds was determined using protocols reported previously. Additional antimicrobial evaluation against MRSA (ATCC 43300), Klebsiella pneumoniae (ATCC 700603), Acinetobacter baumannii (ATCC 19606), Candida albicans (ATCC 90028) and Cryptococcus neoformans (ATCC 208821) was undertaken at the Community for Open Antimicrobial Drug Discovery at The University of Queensland (Australia) according to their standard protocols reported previously.

P. aeruginosa PAO1 [5] = assay: Antibiotic potentiation by 13b, P. aeruginosa PAO1; type: cell-based, Pseudomonas aeruginosa
Description: as §1, §2

P. aeruginosa ATCC 27853 [6] = assay: Antimicrobial MIC, P. aeruginosa; type: cell-based; details: Pseudomonas aeruginosa, ATCC27853, mean (n = 3)
Description: as §4

[7] = test system: C. neoformans ATCC 208821; assay: Antifungal MIC, C. neoformans (CO-ADD); type: cell-based; details: Cryptococcus neoformans, ATCC208821, mean (n = 2)
Description: as §4

K. pneumoniae ATCC 13883 [8] = assay: Antibiotic potentiation by 13b, K. pneumoniae; type: cell-based, Klebsiella pneumoniae
Description: as §1, §2

K. pneumoniae ATCC 13883 [9] = assay: Intrinsic MIC, K. pneumoniae ATCC 13883; type: cell-based; details: Klebsiella pneumoniae, ATCC13883; K. pneumoniae ATCC 13883; substance alone; read-out: MIC alone, K. p
Description: as §1

MRSA ATCC 43300 = assay: Antimicrobial MIC, MRSA (CO-ADD); type: cell-based, methicillin-resistant S. aureus; details: Staphylococcus aureus; MRSA ATCC 43300; mean (n = 2); read-out: MIC MRSA
Description: as §4

C. albicans ATCC 90028 = assay: Antifungal MIC, C. albicans (CO-ADD); type: cell-based; details: Candida albicans, ATCC90028, mean (n = 2)
Description: as §4

E. coli ATCC 25922 [10] = assay: Antimicrobial MIC, E. coli; type: cell-based, Escherichia coli; details: Escherichia coli, ATCC25922, E. coli ATCC 25922; mean (n = 3)
Description: as §4

P. aeruginosa PAO1 [11] = assay: Intrinsic MIC, P. aeruginosa PAO1; type: cell-based; details: Pseudomonas aeruginosa; P. aeruginosa PAO1; substance alone (no antibiotic / no enhancer); read-out: MIC alone, P. a
Description: as §1

E. coli ATCC 25922 [12] = assay: Erythromycin enhancement against E. coli; type: cell-based, Escherichia coli; details: erythromycin fixed at 10.9 µM (8 µg/mL)
Description: as §1

Pseudomonas aeruginosa = test system: Pseudomonas aeruginosa; parameters: method as in PMID 22515429; details: natural product; cited from earlier work
S. aureus = test system: S. aureus; parameters: method as in PMID 22515429; details: natural product; cited from earlier work
[13] = test system: antimicrobial activity (microbes not named); parameters: method as in PMID 36982955; details: cited from earlier work
P. aeruginosa = test system: P. aeruginosa; parameters: method as in PMID 36982955; details: cited from earlier work

O=C(C=Cc1ccccc1)NCCCNCCCCCCNCCCNC(=O)C=Cc1ccccc1.O=C(O)C(F)(F)F.O=C(O)C(F)(F)F [Compound 13b, N^1,N^6-Bis(3-cinnamamidopropyl)hexane-1,6-diaminium 2,2,2-trifluoroacetate]
Fold change, chloramphenicol (A. baumannii AYE [1]; chloramphenicol 2 µg/mL): > 4 fold | Concentration for potentiation of chloramphenicol (A. baumannii AYE [1]; chloramphenicol 2 µg/mL, n = 2): 77.4 µM | Fold change, erythromycin (A. baumannii AYE [1]; erythromycin 2 µg/mL): > 2 fold | Concentration for potentiation of erythromycin (A. baumannii AYE [1]; erythromycin 2 µg/mL, n = 2): 136 µM | Fold change, minocycline (A. baumannii AYE [1]; minocycline 2 µg/mL): > 82 fold | Concentration for potentiation of minocycline (A. baumannii AYE [1]; minocycline 2 µg/mL, n = 2): 3.41 µM | Concentration for potentiation of nalidixic acid (A. baumannii AYE [1]; nalidixic acid 2 µg/mL, n = 2): >200 µM | Fold change, vancomycin (A. baumannii AYE [1]; vancomycin 2 µg/mL): > 2 fold | Concentration for potentiation of vancomycin (A. baumannii AYE [1]; vancomycin 2 µg/mL, n = 2): 138 µM | MIC (A. baumannii AYE [2]): > 278 µM | Cytotoxicity (IC50), concentration of compound at 50% cytotoxicity [3]: non-toxic | IC50 (Cytotoxicity assay): > 44.5 µM | Hemolysis (HC10), concentration of compound at 10% hemolytic activity (human red blood cells): >44.5 µM | Dox/P. a: concentration required to restore doxycycline activity (P. aeruginosa ATCC 27853 [4]): 3.125 µM | MIC (S. aureus ATCC 25923): > 200 µM | Fold change, chloramphenicol (P. aeruginosa PAO1 [5]; chloramphenicol 2 µg/mL): > 7 fold | Concentration for potentiation of chloramphenicol (P. aeruginosa PAO1 [5]; chloramphenicol 2 µg/mL, n = 2): 38.7 µM | Fold change, doxycycline (P. aeruginosa PAO1 [5]; doxycycline 2 µg/mL): > 40 fold | Concentration for potentiation of doxycycline (P. aeruginosa PAO1 [5]; doxycycline 2 µg/mL, n = 2): 7.03 µM | Fold change, erythromycin (P. aeruginosa PAO1 [5]; erythromycin 2 µg/mL): > 2 fold | Concentration for potentiation of erythromycin (P. aeruginosa PAO1 [5]; erythromycin 2 µg/mL, n = 2): 136 µM | Fold change, minocycline (P. aeruginosa PAO1 [5]; minocycline 2 µg/mL): > 41 fold | Concentration for potentiation of minocycline (P. aeruginosa PAO1 [5]; minocycline 2 µg/mL, n = 2): 6.83 µM | MIC (P. aeruginosa ATCC 27853 [6]): > 200 µM | MIC [7]: 44.5 µM | Concentration for potentiation of chloramphenicol (K. pneumoniae ATCC 13883 [8]; chloramphenicol 2 µg/mL, n = 2): >200 µM | Concentration for potentiation of erythromycin (K. pneumoniae ATCC 13883 [8]; erythromycin 2 µg/mL, n = 2): >200 µM | Fold change, minocycline (K. pneumoniae ATCC 13883 [8]; minocycline 2 µg/mL): > 82 fold | Concentration for potentiation of minocycline (K. pneumoniae ATCC 13883 [8]; minocycline 2 µg/mL, n = 2): 3.41 µM | Concentration for potentiation of nalidixic acid (K. pneumoniae ATCC 13883 [8]; nalidixic acid 2 µg/mL, n = 2): >200 µM | Fold change, vancomycin (K. pneumoniae ATCC 13883 [8]; vancomycin 2 µg/mL): > 2 fold | Concentration for potentiation of vancomycin (K. pneumoniae ATCC 13883 [8]; vancomycin 2 µg/mL, n = 2): 138 µM | MIC (K. pneumoniae ATCC 13883 [9]): > 278 µM | MIC (MRSA ATCC 43300): > 44.5 µM | MIC (C. albicans ATCC 90028): > 44.5 µM | MIC (E. coli ATCC 25922 [10]): 100 µM | MIC (P. aeruginosa PAO1 [11]): > 278 µM | Eryth/E. c: concentration required to restore erythromycin activity (E. coli ATCC 25922 [12]): 25 µM | Eryth/E. c: fold change (intrinsic MIC of test compound / combination MIC) (E. coli ATCC 25922 [12]): 4 fold

O=C(C=Cc1ccccc1)NCCCNCCCCCCCCNCCCNC(=O)C=Cc1ccccc1.O=C(O)C(F)(F)F.O=C(O)C(F)(F)F [Compound 13d, N^1,N^8-Bis(3-cinnamamidopropyl)octane-1,8-diaminium 2,2,2-trifluoroacetate]
Cytotoxicity (IC50), concentration of compound at 50% cytotoxicity [3]: non-toxic | IC50 (Cytotoxicity assay): > 42.9 µM | Hemolysis (HC10), concentration of compound at 10% hemolytic activity (human red blood cells): >42.9 µM | Dox/P. a: concentration required to restore doxycycline activity (P. aeruginosa ATCC 27853 [4]): 6.25 µM | MIC (S. aureus ATCC 25923): 100 µM | MIC (P. aeruginosa ATCC 27853 [6]): > 200 µM | MIC [7]: 42.8 µM | MIC (MRSA ATCC 43300): 42.8 µM | MIC (C. albicans ATCC 90028): > 42.8 µM | MIC (E. coli ATCC 25922 [10]): 100 µM | Eryth/E. c: concentration required to restore erythromycin activity (E. coli ATCC 25922 [12]): 25 µM | Eryth/E. c: fold change (intrinsic MIC of test compound / combination MIC) (E. coli ATCC 25922 [12]): 4 fold

COc1ccc(/C=C/C(=O)NCCCNCCCCCCCCNCCCNC(=O)/C=C/c2ccc(OC)cc2)cc1.O=C(O)C(F)(F)F.O=C(O)C(F)(F)F [Compound 14d, N^1,N^8-Bis(3-((E)-3-(4-methoxyphenyl)acrylamido)propyl)octane-1,8-diaminium 2,2,2-trifluoroacetate]
Cytotoxicity (IC50), concentration of compound at 50% cytotoxicity [3]: does not exhibit cytotoxicity/hemolysis | IC50 (Cytotoxicity assay): > 39.7 µM | Dox/P. a: concentration required to restore doxycycline activity (P. aeruginosa ATCC 27853 [4]): 15.5 µM | Dox/P. a: fold change (intrinsic MIC of test compound / combination MIC) (P. aeruginosa ATCC 27853 [4]): 16 fold | MIC (S. aureus ATCC 25923): 7.75 µM | MIC (P. aeruginosa ATCC 27853 [6]): 248 µM | MIC (MRSA ATCC 43300): ≤ 0.31 µM | MIC (C. albicans ATCC 90028): > 39.7 µM | MIC (E. coli ATCC 25922 [10]): 62 µM | Eryth/E. c: concentration required to restore erythromycin activity (E. coli ATCC 25922 [12]): 62 µM | Eryth/E. c: fold change (intrinsic MIC of test compound / combination MIC) (E. coli ATCC 25922 [12]): 1 fold

COc1c(Br)cc(/C=C/C(=O)NCCCNCCCCNCCCNC(=O)/C=C/c2cc(Br)c(OC)c(Br)c2)cc1Br.O=C(O)C(F)(F)F.O=C(O)C(F)(F)F [Compound 16a, N^1,N^4-Bis(3-((E)-3-(3,5-dibromo-4-methoxyphenyl)acrylamido)propyl)butane-1,4-diaminium 2,2,2-trifluoroacetate]
IC50 (Cytotoxicity assay): > 30 µM | MIC towards Pseudomonas aeruginosa (Pseudomonas aeruginosa): 8.75 µM | Hemolysis (HC10), concentration of compound at 10% hemolytic activity (human red blood cells): ≤0.23 µM | Dox/P. a: concentration required to restore doxycycline activity (P. aeruginosa ATCC 27853 [4]): 5.86 µM | Dox/P. a: fold change (intrinsic MIC of test compound / combination MIC) (P. aeruginosa ATCC 27853 [4]): 32 fold | MIC, growth inhibition towards S. aureus (S. aureus): 17.5 µM | MIC (S. aureus ATCC 25923): 5.86 µM | MIC (P. aeruginosa ATCC 27853 [6]): 188 µM | MIC [7]: ≤ 0.23 µM | MIC (MRSA ATCC 43300): ≤ 0.23 µM | MIC (C. albicans ATCC 90028): 30 µM | MIC (E. coli ATCC 25922 [10]): 11.7 µM | Eryth/E. c: concentration required to restore erythromycin activity (E. coli ATCC 25922 [12]): 11.7 µM | Eryth/E. c: fold change (intrinsic MIC of test compound / combination MIC) (E. coli ATCC 25922 [12]): 1 fold

O=C(CCc1ccccc1)NCCCNCCCCCCNCCCNC(=O)CCc1ccccc1 [Compound 17]
Antimicrobial activity [13]: devoid of antimicrobial activity | Ability to enhance the action of doxycycline towards P. aeruginosa (P. aeruginosa): devoid
